Converted amounts (≈) assume the structure as drawn.
Assays:
Experiment in all cases: in vitro antibacterial evaluation, MIC by broth dilution
Format in all cases: cell-based
[1] = system: Escherichia coli; settings: 18 hours at 35° C.
[2] = system: Streptococcus sp.; settings: broth dilution, 18 hours at 35° C.
Method in brief: (§1)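 Step 1: dilute antibiotic across 64-0.06 μg/mL in Muller-Hinton II […]. Step 2: inoculate at 5×10^5 CFU/mL.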

[3] = system: Staphylococcus sp.; settings: broth dilution, 18 hours at 35° C.
Method in brief: as §1

[4] = system: Enterococcus sp.; settings: broth dilution, 18 hours at 35° C.
Method in brief: as §1

Question: With CCCCCNC(=O)OCC1OC(OC2C(CO)OC(Oc3ccc(CC4NC(=O)C(C(C)c5ccccc5)NC(=O)CNC(=O)C(CO)NC(=O)C(C(O)C5CNC(=N)N5C5OC(CO)C(O)C(O)C5O)NC(=O)C(C(O)C5CNC(=N)N5)NC4=O)cc3)C(O)C2O)C(O)C(O)C1O (centres unmarked) [Example 251b] as the compound, how does the “MIC Escherichia coli (ATCC 25922)” value [1] read?
Answer: >64 µg/mL

Question: And the “MIC Escherichia coli (GC 4559)” value [1]?
Answer: >64 µg/mL

Question: And the “MIC Escherichia coli (GC 4560)” value [1]?
Answer: 2 µg/mL (≈ 1.42 µM)

Question: And the “MIC Streptococcus agalactiae (GC 4564)” value [2]?
Answer: 4 µg/mL (≈ 2.84 µM)

Question: What about the “MIC Streptococcus pneumoniae (GC 4565)” value [2] of the same compound?
Answer: 1 µg/mL (≈ 0.71 µM)

Question: What about the “MIC Streptococcus pyogenes (ID-3187)” value [2] of the same compound?
Answer: 2 µg/mL (≈ 1.42 µM)

Question: And the “MIC Streptococcus agalactiae (GC 4564)” value ([2]; strain GC 4564)?
Answer: 4 µg/mL (≈ 2.84 µM)

Question: What about the “MIC Streptococcus pneumoniae (GC 4565)” value ([2]; strain GC 4565) of the same compound?
Answer: 1 µg/mL (≈ 0.71 µM)

Question: What about the “MIC Streptococcus pyogenes (ID-3187)” value ([2]; strain ID-3187) of the same compound?
Answer: 2 µg/mL (≈ 1.42 µM)

Question: And the “MIC Coagulase Negative Staphylococcus (GC 4547)” value [3]?
Answer: 8 µg/mL (≈ 5.68 µM)

Question: What about the “MIC Coagulase Negative Staphylococcus (GC 4548)” value [3] of the same compound?
Answer: 8 µg/mL (≈ 5.68 µM)

Question: What about the “MIC Coagulase Negative Staphylococcus (GC 4549)” value [3] of the same compound?
Answer: 4 µg/mL (≈ 2.84 µM)

Question: And the “MIC Coagulase Negative Staphylococcus (GC 4551)” value [3]?
Answer: 16 µg/mL (≈ 11.4 µM)

Question: What about the “MIC Coagulase Negative Staphylococcus (ID-3941)” value [3] of the same compound?
Answer: 4 µg/mL (≈ 2.84 µM)

Question: What about the “MIC Staphylococcus aureus (ATCC 29213)” value [3] of the same compound?
Answer: 16 µg/mL (≈ 11.4 µM)

Question: What about the “MIC Staphylococcus aureus (GC 1131)” value [3] of the same compound?
Answer: 8 µg/mL (≈ 5.68 µM)

Question: And the “MIC Staphylococcus aureus (GC 4541)” value [3]?
Answer: 8 µg/mL (≈ 5.68 µM)

Question: What about the “MIC Staphylococcus aureus (GC 4542)” value [3] of the same compound?
Answer: 8 µg/mL (≈ 5.68 µM)

Question: And the “MIC Staphylococcus aureus (GC 4544)” value [3]?
Answer: 16 µg/mL (≈ 11.4 µM)

Question: And the “MIC Staphylococcus aureus (GC 4545)” value [3]?
Answer: 8 µg/mL (≈ 5.68 µM)

Question: What about the “MIC Staphylococcus aureus-SMITH (GC 4543)” value [3] of the same compound?
Answer: 8 µg/mL (≈ 5.68 µM)

Question: What about the “MIC Staphylococcus haemolyticus (GC 4546)” value [3] of the same compound?
Answer: 8 µg/mL (≈ 5.68 µM)

Question: What about the “MIC Staphylococcus aureus (ATCC 29213)” value ([3]; strain ATCC 29213) of the same compound?
Answer: 16 µg/mL (≈ 11.4 µM)

Question: What about the “MIC Staphylococcus aureus (GC 1131)” value ([3]; strain GC 1131) of the same compound?
Answer: 8 µg/mL (≈ 5.68 µM)

Question: And the “MIC Staphylococcus aureus (GC 4541)” value ([3]; strain GC 4541)?
Answer: 8 µg/mL (≈ 5.68 µM)

Question: And the “MIC Staphylococcus aureus (GC 4542)” value ([3]; strain GC 4542)?
Answer: 8 µg/mL (≈ 5.68 µM)

Question: And the “MIC Staphylococcus aureus-SMITH (GC 4543)” value ([3]; strain GC 4543)?
Answer: 8 µg/mL (≈ 5.68 µM)

Question: What about the “MIC Staphylococcus aureus (GC 4544)” value ([3]; strain GC 4544) of the same compound?
Answer: 16 µg/mL (≈ 11.4 µM)

Question: What about the “MIC Staphylococcus aureus (GC 4545)” value ([3]; strain GC 4545) of the same compound?
Answer: 8 µg/mL (≈ 5.68 µM)

Question: And the “MIC Staphylococcus haemolyticus (GC 4546)” value ([3]; strain GC 4546)?
Answer: 8 µg/mL (≈ 5.68 µM)

Question: What about the “MIC Coagulase Negative Staphylococcus (GC 4547)” value ([3]; strain GC 4547) of the same compound?
Answer: 8 µg/mL (≈ 5.68 µM)

Question: What about the “MIC Coagulase Negative Staphylococcus (GC 4548)” value ([3]; strain GC 4548) of the same compound?
Answer: 8 µg/mL (≈ 5.68 µM)

Question: And the “MIC Coagulase Negative Staphylococcus (GC 4549)” value ([3]; strain GC 4549)?
Answer: 4 µg/mL (≈ 2.84 µM)

Question: What about the “MIC Coagulase Negative Staphylococcus (GC 4551)” value ([3]; strain GC 4551) of the same compound?
Answer: 16 µg/mL (≈ 11.4 µM)

Question: What about the “MIC Coagulase Negative Staphylococcus (ID-3941)” value ([3]; strain ID-3941) of the same compound?
Answer: 4 µg/mL (≈ 2.84 µM)

Question: What about the “MIC Enterococcus avium (GC 4558)” value [4] of the same compound?
Answer: 64 µg/mL (≈ 45.4 µM)

Question: What about the “MIC Enterococcus faecalis (ATCC 29212)” value [4] of the same compound?
Answer: 64 µg/mL (≈ 45.4 µM)

Question: And the “MIC Enterococcus faecalis (GC 2242)” value [4]?
Answer: 32 µg/mL (≈ 22.7 µM)

Question: What about the “MIC Enterococcus faecalis (GC 4552)” value [4] of the same compound?
Answer: 64 µg/mL (≈ 45.4 µM)

Question: What about the “MIC Enterococcus faecalis (GC 4553)” value [4] of the same compound?
Answer: 64 µg/mL (≈ 45.4 µM)

Question: And the “MIC Enterococcus faecalis (GC 4554)” value [4]?
Answer: 64 µg/mL (≈ 45.4 µM)

Question: What about the “MIC Enterococcus faecium (GC 2243)” value [4] of the same compound?
Answer: 64 µg/mL (≈ 45.4 µM)

Question: What about the “MIC Enterococcus faecium (GC 4556)” value [4] of the same compound?
Answer: 64 µg/mL (≈ 45.4 µM)

Question: And the “MIC Enterococcus faecium (GC 4557)” value [4]?
Answer: 4 µg/mL (≈ 2.84 µM)

Question: What about the “MIC Enterococcus faecalis (ATCC 29212)” value ([4]; strain ATCC 29212) of the same compound?
Answer: 64 µg/mL (≈ 45.4 µM)

Question: What about the “MIC Enterococcus faecalis (GC 2242)” value ([4]; strain GC 2242) of the same compound?
Answer: 32 µg/mL (≈ 22.7 µM)

Question: And the “MIC Enterococcus faecium (GC 2243)” value ([4]; strain GC 2243)?
Answer: 64 µg/mL (≈ 45.4 µM)

Question: What about the “MIC Enterococcus faecalis (GC 4552)” value ([4]; strain GC 4552) of the same compound?
Answer: 64 µg/mL (≈ 45.4 µM)

Question: What about the “MIC Enterococcus faecalis (GC 4553)” value ([4]; strain GC 4553) of the same compound?
Answer: 64 µg/mL (≈ 45.4 µM)

Question: What about the “MIC Enterococcus faecalis (GC 4554)” value ([4]; strain GC 4554) of the same compound?
Answer: 64 µg/mL (≈ 45.4 µM)

Question: And the “MIC Enterococcus faecium (GC 4556)” value ([4]; strain GC 4556)?
Answer: 64 µg/mL (≈ 45.4 µM)

Question: What about the “MIC Enterococcus faecium (GC 4557)” value ([4]; strain GC 4557) of the same compound?
Answer: 4 µg/mL (≈ 2.84 µM)

Question: What about the “MIC Enterococcus avium (GC 4558)” value ([4]; strain GC 4558) of the same compound?
Answer: 64 µg/mL (≈ 45.4 µM)
